The text below walks through data of a melting point compilation (Tetko et al.; mined from patent text by program, amines drawn as free bases though some values may be those of a salt).

As usually defined, the melting point is the temperature, or range, at which the solid turns liquid.

With `Cc1noc(NS(=O)(=O)c2ccc(Cl)cc2)c1Br`, the melting point fell in the range of 145 to 150 °C.

Compound `NC(=S)c1ccc(C(=O)NCc2ccc(N3CC(C(=O)O)OC3=O)cc2)cc1` (stereo not drawn) yielded a melting point of 105 to 110 °C.

`CC(C)c1ccccc1N1C(=O)CS/C1=N\C(=O)Nc1ccc(-c2nnc(-c3ccc(OC(F)(F)C(F)(F)F)cc3)o2)cc1` registered a melting point of 244 to 247 °C.

As to `CN(C(=O)c1ccc2cnccc2n1)C1CCCCC1`, the melting point fell in the range of 62 to 63 °C.

In turn, `COc1ccc(OC)c2c(Nc3cccc(N(C)C)c3)c(C#N)cnc12` displayed a melting point of 103 to 105 °C.

`O=C1OCN(C(=O)OCc2ccccc2)[C@H]1CCBr` came in with a melting point of 85 °C.

As for `CCc1nc(O)cc(O)n1`, the melting point lay in the range of 312 to 315 °C.

The compound `CCCCCS(=O)(=O)NC(=O)c1ccc2[nH]c(C)c(Cc3ccc(SC(C)(C)C)cc3Cl)c2c1` registered a melting point of 185 to 188 °C.

In turn, `Cc1cc([N+](=O)[O-])ccc1N=C1SC(=O)CN1CC(C)C` registered a melting point of 152 °C.

Compound `Brc1ccccc1Cn1c(-c2ccc3c(c2)OCO3)nc2ccccc21` showed a melting point of 122 to 124 °C.

For the compound `CCOC(=O)c1cnn2c1CCC2`, the melting point lay within 35 to 37 °C.

Consider `CN1C(=O)N(CBr)C(=O)C1(C)C`, for which the melting point fell in the range of 86 to 88 °C.

Turning to `CN(C)S(=O)(=O)c1cc(Cl)c(Cl)c(Cl)c1SCSC#N`, the melting point fell in the range of 155 to 156 °C.

`COc1ccc2cc([C@H](C)C(=O)OCCCN3C(=O)OC[C@H]3C(C)(C)SN=O)ccc2c1` showed a melting point of 116 to 117 °C.

Consider `CC(C)Oc1cc(-n2nc(C(F)(F)F)n(C)c2=O)c(Cl)cc1Cl`, for which the melting point was 96 to 98 °C.

As for `O=C(NO)c1ccc(CNC(=O)c2[nH]c(-c3cccs3)cc2-c2ccc(F)cc2)cc1`, the melting point was 214 to 216 °C.

Turning to `CCC(CC)Nc1c([N+](=O)[O-])cc(C(C)C)c(C=CN(C)C)c1[N+](=O)[O-]`, the melting point was in the range of 88 to 89.5 °C.

The compound `COc1nc(N2C(=O)C3CCCCN3C2=O)c(F)cc1C#N` (stereo not drawn) yielded a melting point of 159 to 170 °C.

In turn, `COc1cccc(NC(=O)C(C)(C)C)c1` showed a melting point of 126 °C.

Compound `CN(C)c1ccc2c(c1)C(=O)CC(c1ccccc1O)=N2` yielded a melting point of 296 to 298 °C.

`Cc1cc(O)nn1-c1ccc(Cl)c(Cl)c1` yielded a melting point of 208 to 211 °C.

As for `CC(C)C(NC(=O)c1ccc(-c2ccccc2)cc1)C(=O)O` (stereo not drawn), the melting point was found to be 168 °C.

`Nc1cc(-c2noc(-c3cnc4ccc(-c5ccc(C(F)(F)F)cc5)cn34)n2)ccn1` registered a melting point of 280 °C.

In turn, `ON=Cc1c(Br)ccc2c1OCO2` returned a melting point of 239 to 240 °C.

`CC(=O)N1CCN(c2ccc(-c3cnc4[nH]cc(C(=O)C5(C)CCCCC5)c4n3)cc2)CC1` registered a melting point of 278 to 285 °C.

As to `O=C(Cl)c1cnc2cc(OCc3ccccc3)c(OCc3ccccc3)cn2c1=O`, the melting point is 152 °C.

For the compound `O=C(NCCCN1CCOCC1)c1ccccc1C(c1ccc(O)cc1)c1ccc(O)cc1`, the melting point was 120 to 122 °C.

The compound `CC1CC(C)CN(C(=O)c2ccc(Cl)cc2)C1` (stereo not drawn) registered a melting point of 114 to 115 °C.

Compound `CCN(Cc1cc(Br)ccc1OCc1ccccc1)c1ncc(C(=O)NCc2nnn[nH]2)s1` displayed a melting point of 232 to 236 °C.

Turning to `CCn1c(=O)c2c(nc(/C=C/c3cc(OC)c(OC(C)=O)c(OC)c3)n2C)n(CC)c1=O`, the melting point is 248 to 249 °C.

In turn, `CCCCCC(Cc1cnc(CCCC)n1Cc1ccccc1Cl)C(=O)O` (stereo not drawn) displayed a melting point of 124 to 127 °C.

Compound `CS(=O)(=O)OCCn1nccc1NC=O` displayed a melting point of 101 to 104 °C.

Turning to `CN(C)C(=O)n1nc(C(C)(C)C)nc1SC(NS(C)(=O)=O)NS(C)(=O)=O`, the melting point is 83 to 85 °C.

As to `CC(C)c1cn2ccccc2c1S(=O)(=O)c1ccc(O)cc1`, the melting point lay in the range of 179 to 180 °C.

For the compound `COc1cc2c(Oc3cnc4[nH]ccc4c3)ncnc2cc1OCCCN1CCCC1`, the melting point was in the range of 184 to 186 °C.

For `O=C1CC(S(=O)Cc2ccccc2)N1CCCc1ccccc1` (stereo not drawn), the melting point lay in the range of 93 to 96 °C.

Compound `CCCc1cc(OC)c(OC)cc1Cc1cnc(N)nc1N` had a melting point of 166 to 167 °C.

`CC(CC[Si](CCC(C)[N+](=O)[O-])(c1ccccc1)c1ccccc1)[N+](=O)[O-]` (stereo not drawn): the melting point fell in the range of 84 to 85 °C.

In turn, `N#CC(C#N)=C1N(CCCCN2CCCCC2)CCN1CCCCN1CCCCC1` gave a melting point of 96 to 98 °C.

Regarding `COc1ccc(C(=CC(=O)N2CCOCC2)c2ccc(NC(=O)c3ccc(Cl)cc3)cc2)cc1OC`, the melting point lay in the range of 197 to 207 °C.

Consider `CCOC(=O)C1=C(N)NC(N)=C(C(=O)OCC)C1c1ccccc1[N+](=O)[O-]`, for which the melting point is 142 °C.

`CCCCCCCCCCCCCCCCCCCCCCC(NC(C)=O)(C(=O)OCC)C(=O)OCC` displayed a melting point of 79 to 80 °C.

As for `Cc1cc2c(cc1C)SC(CCCN1CCN(c3ccc(F)cc3)CC1)C(=O)N2` (stereo not drawn), the melting point was 161 to 162 °C.

In the case of `CN1C(=O)N2CCSC2(C)C1=O` (stereo not drawn), the melting point was 67 to 68 °C.

The compound `CCOC(=O)c1cc(C(C)=O)on1` displayed a melting point of 67 to 68 °C.

In the case of `CN(C)C(=O)c1c(CNS(=O)(=O)c2cccc(Cl)c2)nn(-c2ccc(Cl)cc2Cl)c1-c1ccc(Cl)cc1`, the melting point turned out to be 178 °C.

As to `CC(=O)N1CCc2cc(N)ccc21`, the melting point lay in the range of 183 to 185 °C.

The compound `CCn1c(=O)nc(C(C)C)c2cc3c(cc21)OCO3` had a melting point of 180 to 185 °C.

Regarding `N#CC(C#N)=Cc1ccc(C=O)cc1`, the melting point is 142 °C.

For `CCCc1c(OCCCCCCC(=O)NCCCCc2cccnc2)ccc(C(C)=O)c1O`, the melting point is 57 to 59 °C.

`O=C(O)CN1CCOCC1` showed a melting point of 169 to 170 °C.

Consider `NC(CO)C(c1ccccc1)c1ccccc1` (stereo not drawn), for which the melting point is 107 to 108 °C.

The compound `CC(=O)C(=NNc1ccc(OC(C)(C)C)cc1)Sc1ccc(Cl)cc1` showed a melting point of 107 to 108 °C.

For the compound `Cc1[nH]c([N+](=O)[O-])c(C)c1-c1ccnc(Nc2ccc(F)cc2)n1`, the melting point fell in the range of 166 to 170 °C.

In the case of `NC(=O)c1cc([N+](=O)[O-])c(Cl)cc1N1CC1`, the melting point is 155 °C.

As for `CCCCCCCCCCCCCCOc1cccc(CBr)c1CBr`, the melting point lay within 55.7 to 56.5 °C.

The compound `COC(=O)c1ccc(O)c(C(=O)CC(=O)C=Cc2ccccc2)c1` displayed a melting point of 138 to 140 °C.

In the case of `CCCCOCCOc1ccc(-c2ccc3c(c2)C=C(C(=O)O)CCN3C(=O)CNC(C)=O)cc1`, the melting point was 196 to 201 °C.

For the compound `COc1ccc(OC)c(CNC(=O)n2cc(F)c(=O)[nH]c2=O)c1`, the melting point came to 185 °C.

With `CCCCN1CCN(c2cccc3c2C[C@H](NC(C)=O)CC3)CC1`, the melting point lay within 118 to 120 °C.

The compound `CCc1cccc(C)c1COc1cc(C(=O)OC)cc2c1nc(C)n2C` yielded a melting point of 157 °C.

`O=C(CCCCCCOc1ccc(-c2ccccc2)cc1)NO` gave a melting point of 147 to 149 °C.

As to `COCOc1ccc(OC(C)C(=O)Nc2ccc(OC(F)(F)F)cc2)cc1` (stereo not drawn), the melting point lay in the range of 115 to 116 °C.

Regarding `OC[C@@H](O)COc1ccc(OCc2ccccc2)cc1`, the melting point was 125 to 126 °C.

The compound `O=C(Cl)N1CCC1Oc1ccc(C(F)(F)F)cc1Cl` (stereo not drawn) yielded a melting point of 86 to 88 °C.

As for `CC(C)(C)C1=CC=CC(c2ccccc2Cl)(C(C)(C)C)C1O` (stereo not drawn), the melting point fell in the range of 89.5 to 91 °C.

`Cc1cc(COc2ccc(C(=O)NC[C@](O)(C(N)=O)N3CCN(Cc4ccccc4)CC3)cc2)c2ccccc2n1` returned a melting point of 169 °C.

The compound `O=C(c1ccc(F)cc1)c1nc[nH]n1` displayed a melting point of 225 to 230 °C.

For `C#Cc1cccc(Nc2ncnc3[nH]cc(-c4ccc(C)cc4)c23)c1`, the melting point lay within 245 to 247 °C.

Regarding `CC(C)(C)c1cc(SCCC=O)cc(C(C)(C)C)c1O`, the melting point lay within 64 to 65 °C.

`CN1CCC(=C2c3ccc(Cl)cc3C(=O)Cc3cccnc32)CC1` displayed a melting point of 181 to 183 °C.

Regarding `CC(CCCI)C(=O)Nc1nnc(C(C)(C)C)s1` (stereo not drawn), the melting point came to 102 °C.

For `COc1ccc2c(c1)Cc1c(-c3cccs3)n[nH]c1-2`, the melting point fell in the range of 212 to 214 °C.

The compound `O=C1Cc2cccc3c2N1CCC3` came in with a melting point of 90 to 93 °C.

Turning to `CC(C)C1(C)N=C(c2nc3ccsc3cc2C(=O)O)NC1=O` (stereo not drawn), the melting point lay in the range of 242 to 244 °C.

Regarding `COc1c2c(cc3ccncc13)OCO2`, the melting point fell in the range of 144 to 145 °C.

Compound `COc1ccc(N2Cc3ccccc3P2(C)=O)cc1` (stereo not drawn) displayed a melting point of 148 to 150 °C.

Regarding `CC(=O)OC1C(Oc2cccc(O)c2C(=O)CCc2ccc3occc3c2)OC(CO)C(O)C1OC(C)=O` (stereo not drawn), the melting point lay in the range of 127 to 129 °C.

As to `CCc1cccc(CC)c1NC(=O)Nc1cnc(C)nc1-c1ccccc1Cl`, the melting point was 186 to 187 °C.

For the compound `CCc1c2c(nn1CC)c(N)nc1ccccc12`, the melting point was 234 to 236 °C.

`CCOCCOc1ccc(-c2nc(C(=O)Nc3nccs3)c(-c3ccc(Cl)cc3)[nH]2)cc1` had a melting point of 115 °C.

`CCOC(=O)c1cc(OCC)c(OC(C)C)cc1N` registered a melting point of 91 to 93 °C.

The compound `Cc1cc(-c2cc(C(F)(F)F)n3ncc(-c4cccnc4)c3n2)ccc1C(F)(F)F` registered a melting point of 177 °C.

For the compound `COc1ccc(C(=CC=O)c2ccc(OC)c(OC)c2)cc1OC`, the melting point was 129 to 130 °C.

`CCCCc1nc2ccccn2c(=O)c1-c1ccc(OS(=O)(=O)C(F)(F)F)cc1`: the melting point lay in the range of 106 to 108 °C.

Compound `NC(=O)N1CCC(OCCN2CCCCC2)C1` (stereo not drawn) displayed a melting point of 134 to 136 °C.

`Cc1ccc(S(=O)(=O)n2cc(F)c(=O)[nH]c2=O)cc1` had a melting point of 241 to 242 °C.

`CCOC(=O)C1C=Nc2c(cc(F)cc2[N+](=O)[O-])C1=O` (stereo not drawn) registered a melting point of 278 to 280 °C.

The compound `COC1=C(OC)C(=O)C(CCCCCCCCCCCCOC(C)=O)=C(C)C1=O` came in with a melting point of 47 °C.

`CC(=O)c1cc2c(c(Br)c1O)CCCC2`: the melting point lay within 127 to 130 °C.

`C=C(c1ccc(C(=O)OC)cc1)c1cc2c(cc1C)C(C)(C)CCC2(C)C` displayed a melting point of 167 to 168 °C.

On to `CC(=O)c1cccc2cc[nH]c12`, for which the melting point was in the range of 65 to 66 °C.

Compound `COc1cc(OCc2ccccn2)ccc1/C=C/c1cc(/C=C/c2cccc3ncccc23)[nH]n1` displayed a melting point of 107 to 120 °C.
